SMILES strings stand for the structures. Calls of active or inactive are those of the source.

In test [1] the target is Peroxisome proliferator-activated receptor gamma/Nuclear receptor coactivator 1 (Homo sapiens, UniProt P37231). Briefly: TR-FRET dose response biochemical High Throughput Screening assay for agonists of the steroid receptor coactivator 1 (SRC-1) recruitment by the peroxisome proliferator-activated receptor gamma (PPAR gamma): non-selective agonists. [Related pubchem assays (depositor defined):AID1300, AID1808, AID504735, AID631]. Format: protein assay.

Test [2] addresses Peroxisome proliferator-activated receptor gamma/Nuclear receptor coactivator 3 (Homo sapiens, UniProt P37231). Briefly: TR-FRET dose response biochemical High Throughput Screening assay for agonists of the steroid receptor coactivator 3 (SRC-3) recruitment by the peroxisome proliferator-activated receptor gamma (PPAR gamma): non-selective agonists. [Related pubchem assays: 1301 (Confirmation screen.), 1048 (Primary screen.)]. It is filed as functional.

Test [3] concerns the target Peroxisome proliferator-activated receptor gamma/Nuclear receptor coactivator 2 (Homo sapiens, UniProt P37231). As to the kind of experiment: TR-FRET dose response biochemical High Throughput Screening assay for agonists of the steroid receptor coactivator 2 (SRC-2) recruitment by the peroxisome proliferator-activated receptor gamma (PPAR gamma): non-selective agonists. [Related pubchem assays: 1297, 1032 ]. Format: functional.

Test [4] addresses Dual specificity tyrosine-phosphorylation-regulated kinase 1A (Rattus norvegicus, UniProt Q63470). It is filed as biochemical, Homo sapiens.
The nature of test [5]: cytotoxicity in HEK-293T cells, dose response, cytotoxicity control for TCR NF-kB inhibitor project, luminescence, T-cell screen hits (AID 489026).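 Note: cells exposed to compound about 14 hours before the viability readout.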 It is filed as functional, cell-based.
The target of test [6] is DNA dC->dU-editing enzyme APOBEC-3G (Homo sapiens, UniProt Q9HC16). As to the kind of experiment: Dose Response confirmation of small molecule APOBEC3G DNA Deaminase Inhibitors via a fluorescence-based single-stranded DNA deaminase assay. [Related pubchem assays (depositor defined):AID493012, AID493028]. Format: functional.
Test [7] addresses Eukaryotic translation initiation factor 4E (Mus musculus, UniProt P63073). Briefly: eIF4E–eIF4G protein interaction inhibitors, dose response, biochemical, TR-FRET (AID 855).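 Note: potency for disrupting eIF4E binding to eIF4GI seen as loss of FRET.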 It is filed as functional.
For test [8], the target named is T1, Mannose-6-phosphate isomerase (Homo sapiens, UniProt P34949).
T1 sequence (P34949 whole entry): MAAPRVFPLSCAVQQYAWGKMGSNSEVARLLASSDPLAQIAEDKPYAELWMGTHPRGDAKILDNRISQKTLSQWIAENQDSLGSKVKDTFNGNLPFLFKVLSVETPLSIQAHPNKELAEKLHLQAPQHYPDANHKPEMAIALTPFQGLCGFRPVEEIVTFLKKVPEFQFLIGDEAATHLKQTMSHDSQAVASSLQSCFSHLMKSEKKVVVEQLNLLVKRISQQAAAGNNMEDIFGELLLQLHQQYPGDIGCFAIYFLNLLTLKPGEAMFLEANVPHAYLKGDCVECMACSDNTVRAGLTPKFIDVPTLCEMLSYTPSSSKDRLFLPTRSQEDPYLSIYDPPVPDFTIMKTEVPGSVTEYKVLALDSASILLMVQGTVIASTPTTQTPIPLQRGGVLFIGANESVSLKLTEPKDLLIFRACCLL
Briefly: human PMI inhibitors, high substrate, primary screen, biochemical, fluorescence intensity, high mannose 6-phosphate (AID 1220).

Test [9] can be described thus: HeLa cell cytotoxicity, dose response, cytotoxicity control for MgcRacGAP inhibitor project (AID 624300). Format: functional.
Test [10] has as its target T2, Rac GTPase-activating protein 1 (Homo sapiens, UniProt Q9H0H5).
T2 sequence (Q9H0H5 whole entry): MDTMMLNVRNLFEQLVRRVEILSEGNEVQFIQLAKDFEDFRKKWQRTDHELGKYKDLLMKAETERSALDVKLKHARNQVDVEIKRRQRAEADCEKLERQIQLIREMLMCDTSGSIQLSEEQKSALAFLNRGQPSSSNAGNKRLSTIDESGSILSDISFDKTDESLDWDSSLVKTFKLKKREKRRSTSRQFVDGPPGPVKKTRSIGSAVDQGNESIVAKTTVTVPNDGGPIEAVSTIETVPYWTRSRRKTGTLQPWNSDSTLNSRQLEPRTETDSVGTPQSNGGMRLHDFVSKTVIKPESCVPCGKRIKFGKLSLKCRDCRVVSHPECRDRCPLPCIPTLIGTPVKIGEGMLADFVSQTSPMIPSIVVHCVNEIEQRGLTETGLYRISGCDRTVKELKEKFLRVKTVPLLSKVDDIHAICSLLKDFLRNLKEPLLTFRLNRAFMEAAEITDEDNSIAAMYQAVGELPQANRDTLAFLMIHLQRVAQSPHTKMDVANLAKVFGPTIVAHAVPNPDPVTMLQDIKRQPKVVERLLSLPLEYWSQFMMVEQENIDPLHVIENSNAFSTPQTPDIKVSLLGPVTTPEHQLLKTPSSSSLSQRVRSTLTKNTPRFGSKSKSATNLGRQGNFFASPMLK
Briefly: MgcRacGAP GTPase-activating activity inhibitors, confirmation, biochemical, ADP Hunter fluorescence, primary and confirmatory (AID 624330). It is filed as functional.

The next test addresses Large T antigen (Simian virus 40, UniProt P03070). It is filed as functional, Betapolyomavirus macacae.
For test [11], the target named is Glucose-6-phosphate 1-dehydrogenase (Homo sapiens, UniProt P11413). Briefly: human G6PD enzyme inhibitors, dose response, selectivity assay for P. falciparum G6PD inhibitor project, biochemical, fluorescence (AID 504792). It is filed as functional.
Test [12] in a line: Shn3 3'UTR reporter inhibitors, dose response, cell-based, Clone20 osteoblasts, firefly luciferase, cherry-picked (AID 624132).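 Note: firefly luciferase luminescence from reporter carrying the Shn3 3'UTR in osteoblasts.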 Format: functional.
The nature of test [13]: HepG2 cell cytotoxicity, dose response, cytotoxicity control for Shn3 inhibitor project, CellTiter-Glo, cherry-picked (AID 624134). Format: functional, cell-based.
The target in test [14] is T3, Histone-lysine N-methyltransferase NSD2 (Homo sapiens, UniProt O96028).
T3 sequence (O96028 whole entry): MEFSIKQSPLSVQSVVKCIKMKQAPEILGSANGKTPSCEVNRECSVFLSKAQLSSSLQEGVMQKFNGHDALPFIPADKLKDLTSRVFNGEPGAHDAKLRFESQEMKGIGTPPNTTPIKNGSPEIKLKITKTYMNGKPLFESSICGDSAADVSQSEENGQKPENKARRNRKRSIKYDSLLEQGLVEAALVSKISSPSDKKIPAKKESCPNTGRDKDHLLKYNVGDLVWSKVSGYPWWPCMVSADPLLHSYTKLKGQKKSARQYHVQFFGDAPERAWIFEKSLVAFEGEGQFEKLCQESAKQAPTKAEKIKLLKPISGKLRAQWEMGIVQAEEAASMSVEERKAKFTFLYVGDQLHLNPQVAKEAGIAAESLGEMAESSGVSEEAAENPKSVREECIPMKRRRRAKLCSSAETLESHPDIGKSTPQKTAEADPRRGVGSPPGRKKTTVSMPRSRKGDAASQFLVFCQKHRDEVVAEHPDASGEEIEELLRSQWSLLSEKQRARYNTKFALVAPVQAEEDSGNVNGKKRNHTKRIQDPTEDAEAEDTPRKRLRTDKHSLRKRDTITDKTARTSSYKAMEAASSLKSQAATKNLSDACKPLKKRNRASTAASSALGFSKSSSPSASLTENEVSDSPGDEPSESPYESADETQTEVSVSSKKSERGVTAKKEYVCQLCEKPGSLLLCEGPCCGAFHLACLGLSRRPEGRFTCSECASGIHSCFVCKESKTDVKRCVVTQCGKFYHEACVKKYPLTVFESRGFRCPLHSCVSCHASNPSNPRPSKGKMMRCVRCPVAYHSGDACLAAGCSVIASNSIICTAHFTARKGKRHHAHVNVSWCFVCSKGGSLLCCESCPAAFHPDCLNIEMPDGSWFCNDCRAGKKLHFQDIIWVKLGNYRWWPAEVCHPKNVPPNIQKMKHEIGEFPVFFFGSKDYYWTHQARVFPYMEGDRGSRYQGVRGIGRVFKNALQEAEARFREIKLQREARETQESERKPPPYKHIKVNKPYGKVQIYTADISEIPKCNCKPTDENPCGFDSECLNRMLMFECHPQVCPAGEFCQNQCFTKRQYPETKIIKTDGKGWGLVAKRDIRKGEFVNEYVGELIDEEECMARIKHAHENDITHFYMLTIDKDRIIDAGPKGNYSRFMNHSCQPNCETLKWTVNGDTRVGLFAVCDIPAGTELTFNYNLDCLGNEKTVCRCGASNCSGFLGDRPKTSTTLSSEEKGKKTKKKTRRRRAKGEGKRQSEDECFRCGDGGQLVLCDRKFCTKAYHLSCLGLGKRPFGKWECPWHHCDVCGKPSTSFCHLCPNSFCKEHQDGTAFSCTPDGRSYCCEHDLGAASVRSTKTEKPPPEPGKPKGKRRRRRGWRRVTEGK
Format: biochemical.

The target in test [15] is G-protein coupled receptor 55 (Homo sapiens, UniProt Q9Y2T6). Briefly: GPR55 agonists via beta-arrestin recruitment, primary screen, imaging, U2OS cells, beta-arrestin-GFP redistribution (AID 1961). Format: functional.
Test [16] can be described thus: HEp-2 cell cytotoxicity, dose response, cytotoxicity control for RSV inhibitor project, HTS (AID 2410). It is filed as functional. Particulars: human respiratory syncytial virus.
Test [17] deals with T4, Heat shock factor protein 1 (Mus musculus, UniProt P38532).
T4 sequence (P38532 whole entry): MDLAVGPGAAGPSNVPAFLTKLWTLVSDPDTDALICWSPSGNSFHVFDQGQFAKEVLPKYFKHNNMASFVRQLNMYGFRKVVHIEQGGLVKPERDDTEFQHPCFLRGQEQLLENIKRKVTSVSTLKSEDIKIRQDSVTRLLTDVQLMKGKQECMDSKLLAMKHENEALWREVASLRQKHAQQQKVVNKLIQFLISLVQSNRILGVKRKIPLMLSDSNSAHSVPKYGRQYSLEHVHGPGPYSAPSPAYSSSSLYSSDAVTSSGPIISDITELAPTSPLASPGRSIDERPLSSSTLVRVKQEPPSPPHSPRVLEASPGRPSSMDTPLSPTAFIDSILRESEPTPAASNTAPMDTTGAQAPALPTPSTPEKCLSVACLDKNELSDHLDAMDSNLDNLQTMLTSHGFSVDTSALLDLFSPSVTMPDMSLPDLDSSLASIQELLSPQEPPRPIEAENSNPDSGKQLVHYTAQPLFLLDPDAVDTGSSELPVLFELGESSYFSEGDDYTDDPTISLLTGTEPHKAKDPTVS
Briefly: inhibition of MG132-induced HSE-luciferase signal, confirmation, cell-based, NIH3T3, luminescence, dose retest (AID 2382).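 Note: NIH3T3 fibroblasts with HSF1-driven luciferase reporter stressed by proteasome inhibitor MG132; luminescence from HSF1-driven luciferase expression after 8 hours of MG132 stress.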 Format: functional.

Chain of Peroxisome proliferator-activated receptor gamma/Nuclear receptor coactivator 2 (P37231 whole entry): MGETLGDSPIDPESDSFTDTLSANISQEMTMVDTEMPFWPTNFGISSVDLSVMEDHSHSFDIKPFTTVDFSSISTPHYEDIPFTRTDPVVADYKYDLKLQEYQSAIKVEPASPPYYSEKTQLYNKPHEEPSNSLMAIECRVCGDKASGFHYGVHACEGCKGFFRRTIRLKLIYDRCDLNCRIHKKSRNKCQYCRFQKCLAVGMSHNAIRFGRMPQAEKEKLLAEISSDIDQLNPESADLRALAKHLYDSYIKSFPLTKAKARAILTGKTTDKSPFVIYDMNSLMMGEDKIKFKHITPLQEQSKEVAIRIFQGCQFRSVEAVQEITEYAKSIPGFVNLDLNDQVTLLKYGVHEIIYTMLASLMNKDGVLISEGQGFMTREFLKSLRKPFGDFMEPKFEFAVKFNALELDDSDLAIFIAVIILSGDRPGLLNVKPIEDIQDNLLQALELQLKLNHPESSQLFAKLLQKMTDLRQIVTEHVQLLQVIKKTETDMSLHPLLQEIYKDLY
Chain of Peroxisome proliferator-activated receptor gamma/Nuclear receptor coactivator 2 (Q15596 whole entry, further chain): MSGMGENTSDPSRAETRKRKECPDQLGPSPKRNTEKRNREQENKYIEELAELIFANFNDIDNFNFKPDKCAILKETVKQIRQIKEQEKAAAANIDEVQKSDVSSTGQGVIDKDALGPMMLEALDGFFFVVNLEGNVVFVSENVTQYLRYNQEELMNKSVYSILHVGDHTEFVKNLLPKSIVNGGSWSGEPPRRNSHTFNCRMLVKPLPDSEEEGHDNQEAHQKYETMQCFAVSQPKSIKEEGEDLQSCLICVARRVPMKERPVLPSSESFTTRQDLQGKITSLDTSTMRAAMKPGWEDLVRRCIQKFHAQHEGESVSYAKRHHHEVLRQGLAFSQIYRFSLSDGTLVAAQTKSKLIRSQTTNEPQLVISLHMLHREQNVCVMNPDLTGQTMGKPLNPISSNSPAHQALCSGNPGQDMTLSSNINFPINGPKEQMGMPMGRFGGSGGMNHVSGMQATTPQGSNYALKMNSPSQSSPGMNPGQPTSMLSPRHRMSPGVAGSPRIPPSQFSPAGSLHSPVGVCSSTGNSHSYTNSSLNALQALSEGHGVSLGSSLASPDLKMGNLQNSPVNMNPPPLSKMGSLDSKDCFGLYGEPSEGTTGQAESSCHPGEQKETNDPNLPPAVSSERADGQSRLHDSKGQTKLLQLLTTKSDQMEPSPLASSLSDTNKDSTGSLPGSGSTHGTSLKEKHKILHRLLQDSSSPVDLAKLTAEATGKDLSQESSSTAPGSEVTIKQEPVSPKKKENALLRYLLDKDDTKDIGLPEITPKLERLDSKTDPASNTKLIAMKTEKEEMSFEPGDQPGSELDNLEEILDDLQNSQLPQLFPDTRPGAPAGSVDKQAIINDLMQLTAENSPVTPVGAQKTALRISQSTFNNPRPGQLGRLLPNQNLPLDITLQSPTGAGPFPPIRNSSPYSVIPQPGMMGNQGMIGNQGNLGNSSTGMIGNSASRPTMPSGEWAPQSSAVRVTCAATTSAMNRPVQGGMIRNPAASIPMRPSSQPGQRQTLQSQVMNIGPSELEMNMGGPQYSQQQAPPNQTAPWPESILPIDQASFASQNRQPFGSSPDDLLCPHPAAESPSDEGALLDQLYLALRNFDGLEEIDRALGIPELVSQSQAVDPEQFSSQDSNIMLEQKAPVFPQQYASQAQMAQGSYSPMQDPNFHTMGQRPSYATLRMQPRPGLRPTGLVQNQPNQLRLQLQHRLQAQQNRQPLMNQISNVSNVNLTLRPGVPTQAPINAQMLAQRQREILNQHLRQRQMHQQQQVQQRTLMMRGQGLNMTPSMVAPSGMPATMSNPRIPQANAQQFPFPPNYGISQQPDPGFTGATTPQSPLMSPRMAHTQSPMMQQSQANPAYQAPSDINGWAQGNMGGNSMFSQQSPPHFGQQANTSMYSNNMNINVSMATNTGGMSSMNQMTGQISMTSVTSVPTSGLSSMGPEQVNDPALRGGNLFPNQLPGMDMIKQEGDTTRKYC
Chain of Peroxisome proliferator-activated receptor gamma/Nuclear receptor coactivator 1 (P37231 whole entry): as the sequence (P37231 whole entry) above
Chain of Peroxisome proliferator-activated receptor gamma/Nuclear receptor coactivator 1 (Q15788 whole entry, further chain): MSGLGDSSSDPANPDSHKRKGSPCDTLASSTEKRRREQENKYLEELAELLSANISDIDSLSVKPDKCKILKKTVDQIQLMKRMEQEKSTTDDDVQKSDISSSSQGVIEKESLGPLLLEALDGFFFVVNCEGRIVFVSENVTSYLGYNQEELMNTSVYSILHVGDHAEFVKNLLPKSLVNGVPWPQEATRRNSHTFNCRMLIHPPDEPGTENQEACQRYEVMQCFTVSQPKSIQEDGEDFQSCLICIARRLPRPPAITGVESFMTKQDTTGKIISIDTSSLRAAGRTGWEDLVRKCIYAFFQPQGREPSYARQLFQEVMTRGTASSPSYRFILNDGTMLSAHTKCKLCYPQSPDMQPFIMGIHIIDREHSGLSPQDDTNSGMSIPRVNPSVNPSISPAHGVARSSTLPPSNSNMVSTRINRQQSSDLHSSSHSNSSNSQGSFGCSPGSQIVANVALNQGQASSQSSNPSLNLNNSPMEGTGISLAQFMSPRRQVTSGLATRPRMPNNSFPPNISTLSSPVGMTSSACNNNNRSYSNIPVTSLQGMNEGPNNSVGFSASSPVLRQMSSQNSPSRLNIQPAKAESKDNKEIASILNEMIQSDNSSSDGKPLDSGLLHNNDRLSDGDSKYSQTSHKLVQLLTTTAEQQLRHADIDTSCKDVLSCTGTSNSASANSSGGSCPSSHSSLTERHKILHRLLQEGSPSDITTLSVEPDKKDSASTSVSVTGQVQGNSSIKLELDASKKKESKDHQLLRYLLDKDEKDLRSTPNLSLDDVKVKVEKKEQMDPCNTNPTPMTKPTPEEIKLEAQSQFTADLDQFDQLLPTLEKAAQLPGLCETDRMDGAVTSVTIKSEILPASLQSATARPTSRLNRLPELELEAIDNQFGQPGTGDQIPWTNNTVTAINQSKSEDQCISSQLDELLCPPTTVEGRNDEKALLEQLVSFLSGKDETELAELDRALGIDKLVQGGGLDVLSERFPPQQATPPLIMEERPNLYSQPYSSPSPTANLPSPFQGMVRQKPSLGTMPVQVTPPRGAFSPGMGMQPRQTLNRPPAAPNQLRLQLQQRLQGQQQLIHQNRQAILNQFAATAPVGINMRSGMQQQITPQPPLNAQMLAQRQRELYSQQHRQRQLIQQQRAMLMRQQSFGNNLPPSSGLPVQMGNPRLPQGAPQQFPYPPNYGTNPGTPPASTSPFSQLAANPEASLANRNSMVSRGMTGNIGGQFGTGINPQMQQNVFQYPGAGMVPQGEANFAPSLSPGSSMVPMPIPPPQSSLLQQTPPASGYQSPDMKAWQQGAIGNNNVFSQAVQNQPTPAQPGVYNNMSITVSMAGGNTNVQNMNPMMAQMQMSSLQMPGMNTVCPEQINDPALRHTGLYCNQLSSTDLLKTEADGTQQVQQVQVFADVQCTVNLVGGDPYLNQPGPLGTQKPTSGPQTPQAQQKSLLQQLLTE
Chain of DNA dC->dU-editing enzyme APOBEC-3G (Q9HC16 whole entry): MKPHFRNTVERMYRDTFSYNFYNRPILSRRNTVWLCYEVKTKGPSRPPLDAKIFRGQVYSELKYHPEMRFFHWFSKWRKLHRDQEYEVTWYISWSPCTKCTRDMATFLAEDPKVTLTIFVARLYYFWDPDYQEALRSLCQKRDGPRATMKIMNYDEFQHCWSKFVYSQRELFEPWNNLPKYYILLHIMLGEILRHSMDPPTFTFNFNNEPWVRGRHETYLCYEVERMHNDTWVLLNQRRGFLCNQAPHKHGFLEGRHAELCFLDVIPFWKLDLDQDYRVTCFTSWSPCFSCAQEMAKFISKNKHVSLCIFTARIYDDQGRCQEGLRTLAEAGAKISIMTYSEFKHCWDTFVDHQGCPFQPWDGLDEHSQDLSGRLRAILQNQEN
Chain of Eukaryotic translation initiation factor 4E (P63073 whole entry): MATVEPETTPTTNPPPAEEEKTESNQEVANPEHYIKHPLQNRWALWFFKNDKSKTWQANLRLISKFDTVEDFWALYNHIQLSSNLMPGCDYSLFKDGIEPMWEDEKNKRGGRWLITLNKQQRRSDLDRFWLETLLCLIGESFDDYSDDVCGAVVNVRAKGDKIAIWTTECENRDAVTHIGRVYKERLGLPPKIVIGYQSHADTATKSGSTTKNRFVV
Chain of G-protein coupled receptor 55 (Q9Y2T6 whole entry): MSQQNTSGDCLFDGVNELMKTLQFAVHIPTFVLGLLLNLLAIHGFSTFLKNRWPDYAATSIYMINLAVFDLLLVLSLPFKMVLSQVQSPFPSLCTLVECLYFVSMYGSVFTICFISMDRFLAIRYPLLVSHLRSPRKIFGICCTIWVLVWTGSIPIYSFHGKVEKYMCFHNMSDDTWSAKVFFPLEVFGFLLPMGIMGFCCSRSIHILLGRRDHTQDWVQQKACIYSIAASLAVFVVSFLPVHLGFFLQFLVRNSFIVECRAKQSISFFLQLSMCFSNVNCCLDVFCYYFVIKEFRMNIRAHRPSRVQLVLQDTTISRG

As for `CCOC(=O)C1CCN(C(=O)CSc2cc(=O)n(CC)c3ccccc23)CC1`, the EC50 was > 79.4 µM (inactive) in [1], > 79.4 µM (not active) in test [2] and > 79.4 µM (not active) in test [3].
In the case of `O=C(O)Cc1sc(-c2ccccc2)nc1-c1cccs1`, the EC50 in test [1] was 94.8 µM (inactive); in test [2], > 79.4 µM (not active); in test [3], 26 µM (not active).
Consider `COCCNC(=O)c1ccc2c(c1)nc(C)n2-c1cccc(F)c1`, for which the AC50 in [4] is 98.8 µM (active).
For the molecule `CCOC(=O)c1[nH]c(C)c(C(=O)Nc2ccccc2C)c1C`, in test [5], the IC50 is > 80 µM (inactive).
On to `CCc1ccc(-n2c(C)nnc2S)cc1`, for which the half-maximal inhibitory concentration (IC50) in [6] is 14.6 µM (active).
`COc1ccc(C2=Nn3c(nnc3-c3ccccc3OC)SC2)cc1OC1CCCC1`: the IC50 in test [5] was 35.9 µM (inactive).
Regarding `COC(=O)c1ccccc1NC(=O)COC(=O)c1ccc(C)c(NC(=O)c2ccco2)c1`, the IC50 in test [7] was > 64 µM (inactive).
With `CCN(CC)C(=S)SC1=CCS(=O)(=O)C1`, the IC50 in test [8] is 24.5 µM (active).
Take `Cc1ccnc(Nc2nc(-c3ccc(O)c(O)c3)cs2)c1`: in test [4], the AC50 is 10.1 µM (active). The CC50 in test [9] was 69.5 µM (active). The IC50 in [10] is 41.3 µM (active).
`CC1=NOC(=O)/C1=C\c1ccc(-c2ccccc2Br)o1`: the concentration for a half-maximal effect (EC50) in test [1] was 9.24 µM (active); in test [2] it was > 79.4 µM (not active); in [3] it was 5.02 µM (active). In addition, the IC50 on Large T antigen was 16.4 µM (active); in [11], > 80 µM (inactive). The AC50 in [12] is 6.48 µM (active); in [13], > 70 µM (inactive); in [14], > 20 µM (inactive).
With `CCOC(=O)c1sc2cc([N+](=O)[O-])cc(SCC(C)C)c2c1N`, the concentration for a half-maximal effect (EC50) in test [15] is 0.523 µM (active).
Consider `COc1cc(C(C(=O)NC2CCCCC2)N(C(=O)c2snc(C(N)=O)c2N)c2ccc(C)cc2)ccc1O` (stereo not drawn), for which the CC50 in test [16] was > 50 µM (active). In addition, the concentration for half-maximal inhibition (IC50) in “cells” was 47 µM (active).
Taken in the same sequence, the figures for `CCn1c(SCc2c(Cl)cccc2Cl)nnc1-c1nn(-c2ccccc2)ccc1=O` were 49.8 µM (active) and 33.7 µM (active).
In the case of `CCN(CC)S(=O)(=O)c1cc(F)ccc1OC`, in test [7], the IC50 is > 64 µM (inactive).
As to `Cc1[nH][nH]c(=O)c1N=Nc1ccccc1Cl`, the concentration at half-maximal activity (AC50) in test [4] is 28.9 µM (active).
For `Cn1c(=O)cc(SCC(=O)N2CCN(C(=O)c3ccco3)CC2)c2ccccc21`, the EC50 was > 79.4 µM (inactive) in test [1], > 79.4 µM (not active) in test [2], > 195 µM (not active) in test [17] and > 79.4 µM (not active) in test [3].
Turning to `N#Cc1c2ccc(OCC(N)=O)cc2n2ccccc12`, the IC50 in test [8] is > 50 µM (not active).
Regarding `CC(=O)Oc1cc(OC(C)=O)c2c(C)cc(=O)oc2c1`, the IC50 in the test “cells” is 25.3 µM (active).
With `CC(C)(C)C1=Nn2c(nnc2-c2n[nH]c3c2CCC3)SC1`, the half-inhibitory concentration (IC50) was > 50 µM (not active) in test [8] and 23.3 µM (active) in test [6].

Source of the values: ChEMBL document CHEMBL1201862, “PubChem BioAssay data set” (2004).
